Patent publication US11040021B2, “Treatment of diseases associated with hepatic stellate cell activation using ammonia-lowering therapies” (UCL Business PLC, priority 2014, dated 2021)

Tests used:
[1] = system: primary human hepatic stellate cells (hHSCs); assay: hHSC recovery with glutamine and GS inhibition (MSO) under ammonia; type: cell-based
Protocol: (§1) Primary human hepatic stellate cells (hHSCs) were cultured. Effects of an NH4Cl challenge (0.1-10 mM over 24-72 hrs) on hHSC proliferation (BrdU), metabolic activity (MTS assay), viability (Neutral-Red), ultrastructural changes (TE-M) and gene/protein expression (q-PCR/Western blot) were studied. To test recovery, ammonia treated cells were replenished with glutamine and in separate experiments, pre-treated with L-methionine-sulfoximine (MSO-GS inhibitor) to determine the importance of glutamine synthetase (GS).

[2] = system: primary human hepatic stellate cells (hHSCs); conditions: after 3 hours, sustained after 24 hours, vs control
Protocol: (§2) In this example, primary human HSCs (hHSCs) were isolated and cultured. Proliferation (BrdU), metabolic activity (MTS), morphology (TEM, light- and immunofluorescence microscopy), HSC activation markers, ability to contract, and changes in oxidative status (ROS) were evaluated to identify effects of ammonia challenge (50 μM, 100 μM, 300 μM) over 24-72 hours.

[3] = system: primary human hepatic stellate cells (hHSCs); conditions: up to 72 hours
Protocol: The formation of reactive oxygen species (ROS) was measured using Image-IT™ LIVE Green Reactive Oxygen Species Detection Kit. In FIG. 3B, mean fluorescence intensity (MFI) of ROS signal was normalized according to the number of cells (Hoechst 33342), and expressed as percentage of control.
as §2

SOD2 = SOD2 mRNA expression in hHSC; type: cell-based, human
[4] = system: primary human hepatic stellate cells (hHSCs)
Protocol: as §1, §2
(§3) Primary hHSCs were isolated from wedge sections of liver tissue, obtained from patients undergoing surgery in the Royal Free Hospital after giving informed consent (EC01.14-RF). Cells were isolated according to Mederacke et al. (Nature Protocols 2015, 10:305-315) with modifications for human liver as described in Rombouts K, Carloni V. Determination and characterization of tetraspanin-associated phosphoinositide-4 kinases in primary and neoplastic liver cells. In: Waugh MG, editor. Lipid Signaling Protocols, 2 ed. New York: Springer Science+Business Media; 2015. p. 203-212). Briefly, 10 g of total human liver tissue was digested with 0.01% Collagenase, 0.05% Pronase and 0.001% DNase I without performing perfusion. The homogenate was filtered through a 100 μm cell strainer and the flow-through was centrifuged at 50×g for 2 minutes at 4° C. After washing the supernatant, gradient centrifugation was performed at 1400×g for 17 minutes at 4° C. using an 11.5% Optiprep gradient. Finally, the interface was collected and washed. Purity of hHSCS was established by detection of CD140b (PDGFRbeta), CD29 (Integrin beta 1) and Cytoglobin (CYGB).
The obtained HSCs were cultured in RPMI supplemented with 20% fetal bovine serum (FBS), GLUTAMAX, nonessential amino acids 1×, 1.0 mM sodium pyruvate, 1× antibiotic-antimycotic (all Life Technologies), referred to as complete HSC medium hereinafter. Experiments described in this study were performed on hHSCs of at least three independent cell preparations between passage 3 and 8.
Cells were seeded (density 26×10^3/cm^2) under basic serum-rich conditions (CM complete medium) for 24 hours, followed by serum deprivation for another 24 hours (SFM). Exogenous glutamine was removed from the culture medium to avoid uncontrolled generation of ammonia. Specific treatment with NH4Cl treatments were replaced daily for the duration of the experiment.

[5] = system: MMP2, TIMP1, Interleukin-1β, Interleukin 6, Interleukin 8
Protocol: as §1, §2

[6] = system: α-SMA, vimentin, PDGF-Rβ, Myosin IIa and IIb, p-38 MAPK, Collagen type I
Protocol: as §1, §2

[7] = system: primary human hepatic stellate cells (hHSCs); remark: listed apart in the source
Excerpt: as §3
The obtained HSCs were cultured in RPMI supplemented with 20% fetal bovine serum (FBS), GLUTAMAX, nonessential amino acids 1×, 1.0 mM sodium pyruvate, 1× antibiotic-antimycotic (all Life Technologies), referred to as complete HSC medium hereinafter. […]

[8] = Example 1, NH4Cl challenge 0.1-10 mM over 24-72 hrs
[9] = different concentrations of ammonia (50, 100, 300 μM), 72 hours
[10] = in comparison to MSO treatment only
[11] = increasing concentrations of ammonia

CS(=N)(=O)CC[C@H](N)C(=O)O (stereo partly drawn) [MSO, L-Methionine sulfoximine]
Effect of MSO together with hyperammonemia on hHSC ([1]; Example 1, MSO pre-treatment): induced cell detachment and prevention of recovery

NC(=O)CC[C@H](N)C(=O)O [L-glutamine]
Ammonia-induced ER enlargement on replenishing the culture with L-glutamine ([1]; Example 1): reversible

N [ammonia, NH4Cl]
Contraction of hHSCs cultured on collagen gels [2]: significant ability to contract | ROS production [3]: produced significant reactive oxygen species | SOD2 mRNA expression (SOD2; ammonia, after 3 hours, sustained at 24 hours): strong increase | Filamentous actin in the cytoskeleton (TRITC-Phalloidin staining) ([4]; 72 hours): dose-dependent disruption of filamentous actin | Intracellular ER (ultrastructure) ([4]; Example 1): dose-dependent intracellular ER enlargement | Metabolic activity [4, 8]: time dependent decreases | Proliferation [4, 8]: time dependent decreases | Cell phenotype ([4]; Example 1, even at 50-100 umol/L): cell swelling and a myo-fibroblast-like phenotype | Cell proliferation (BrdU assay) [4, 9]: significant inhibition | Metabolic activity (MTS assay) [4, 9]: significant inhibition | Ultrastructural change (TEM) ([4]; dose-dependent, FIG. 2A): dramatic dose-dependent change in the cytosol and marked presence of translucent vacuoles | Metabolic activity after MSO pretreatment followed by ammonia [4, 10]: did not further inhibit | Proliferation after MSO pretreatment followed by ammonia [4, 10]: did not further inhibit | Interleukin 8 mRNA expression [5]: did not modify | MMP2 mRNA expression ([5]; FIG. 4B): strong and significant up-regulation | TIMP1 mRNA expression ([5]; FIG. 4B): down-regulated | Interleukin-1β mRNA expression ([5]; ammonia 300 μM for 72 hours): significantly induced | Interleukin 6 mRNA expression level ([5]; ammonia at 50 μM and 100 μM): significantly up-regulated | P-38 MAPK expression [6]: dose-dependent response | PDGFR-β protein [6]: significant up-regulation | Vimentin synthesis ([6]; 300 μM ammonia): increased | α-SMA protein expression ([6]; FIG. 4A): significantly increase | Myosin IIa protein [6, 11]: significantly modulated | Myosin IIb protein [6, 11]: significantly modulated | Collagen type I protein ([6]; not statistically significant): tendency to increase | Cell death (Cell Death Detection ELISA) [7]: did not cause cell death

CC(=O)N[C@@H](CS)C(=O)O [NAC, N-acetyl cysteine]
Ammonia-induced SOD2 mRNA expression after NAC pre-treatment (SOD2; 3 hours of ammonia treatment): no impact | Ammonia-induced SOD2 mRNA expression after NAC pre-treatment (SOD2; 24 hours of ammonia treatment): almost completely abolished
